IC50 data for 29 compounds are collected here from patent US20240216357A1 (SICHUAN HUIYU PHARMACEUTICAL CO., LTD., priority 2021, published 2024).

Structures can show the parent of a compound that is named as a salt. Where two headings read alike, the source gives them in different places.

In one assay the target is LSD1 (Homo sapiens (Human), UniProt O60341). Description: LSD1 enzyme activity detection (HTRF). In kind it is biochemical. Conditions: read-out: Inhibition of enzymatic activity of LSD1 IC50.
The subject of a further assay is NCI-H1417 cells. Description: In vitro cell proliferation detection (CellTiter-Glo, 7 days). It counts as cell-based. Conditions: Homo sapiens, 168 h; NCI-H1417 cells, 7 days, CellTiter-Glo; read-out: NCI-H1417 proliferation inhibition IC50. On the technique in general: ATP-based viability assays read luminescence as a measure of living cells.

For the compound `N#Cc1ccc(-c2nc(N3CCC(N)CC3)cc(O)c2-c2ccc(OC(F)(F)F)c(O)c2)cc1F` [Example 29, 4-(6-(4-aminopiperidin-1-yl)-4-hydroxy-3-(3-hydroxy-4-(trifluoromethoxy)phenyl)pyridin-2-yl)-2-fluorobenzonitrile hydrochloride], the IC50 was 3.38 nM on LSD1 (HTRF, H3K4me1 substrate) and 11.8 nM with NCI-H1417 cells.
The like results for `COc1ccc(-c2c(O)cc(N3CCC[C@@H](N)C3)nc2-c2ccc(C#N)c(F)c2)cc1F` [Example 31, (R)-4-(6-(3-aminopiperidin-1-yl)-3-(3-fluoro-4-methoxyphenyl)-4-hydroxypyridin-2-yl)-2-fluorobenzonitrile hydrochloride] were, in that order, 51 nM and 77.2 nM.
The like results for `CC(C)(O)Cc1ccc(-c2c(O)cc(N3CCC(N)CC3)nc2-c2ccc(C#N)c(F)c2)c(F)c1` [Example 32, 4-(6-(4-aminopiperidin-1-yl)-3-(2-fluoro-4-(2-hydroxy-2-methylpropyl)phenyl)-4-hydroxypyridin-2-yl)-2-fluorobenzonitrile hydrochloride] were, in that order, 48.8 nM and 262 nM.
The like results for `COc1ccc(-c2c(O)cc(N3CCC(N)CC3)nc2-c2ccc(C#N)c(F)c2)c(F)c1F` [Example 35, 4-(6-(4-aminopiperidin-1-yl)-3-(2,3-difluoro-4-methoxyphenyl)-4-hydroxypyridin-2-yl)-2-fluorobenzonitrile] were, in that order, 35.7 nM and 31.8 nM.
Take `COc1ccc(-c2c(O)cc(N3CCC(N)CC3)nc2-c2ccc(C#N)c(F)c2)c(F)c1` [Example 36, 4-(6-(4-aminopiperidin-1-yl)-3-(2-fluoro-4-methoxyphenyl)-4-hydroxypyridin-2-yl)-2-fluorobenzonitrile hydrochloride]: the IC50 amounted to 35.2 nM on LSD1 (HTRF, H3K4me1 substrate) and 21.2 nM in the assay with NCI-H1417 cells.
The like results for `COc1ccc(-c2c(O)cc(N3C4CCC3CC(N)C4)nc2-c2ccc(C#N)c(F)c2)cc1O` (stereo not shown) [Example 37, 4-(6-(3-amino-8-azabicyclo[3.2.1]octane-8-yl)-4-hydroxy-3-(3-hydroxy-4-methoxyphenyl)pyridin-2-yl)-2-fluorobenzonitrile] were, in that order, 15.1 nM and 173 nM.
In the case of `CC(C)(O)COc1ccc(-c2c(O)cc(N3CCC(N)CC3)nc2-c2ccc(C#N)c(F)c2)cc1F` [Example 38, 4-(6-(4-aminopiperine-1-yl)-3-(3-fluoro-4-(2-hydroxy-2-methylpropoxy)phenyl)-4-hydroxypyridin-2-yl)-2-fluorobenzonitrile hydrochloride], the IC50 at LSD1 (HTRF, H3K4me1 substrate) stood at 57.6 nM; in the assay on NCI-H1417 cells, 179 nM.
The like results for `CC(C)(O)Cc1ccc(-c2c(O)cc(N3CCC(N)CC3)nc2-c2ccc(C#N)c(F)c2)cc1F` [Example 39, 4-(6-(4-aminopiperidin-1-yl)-3-(3-fluoro-4-(2-hydroxy-2-methylpropyl)phenyl)-4-hydroxypyridin-2-yl)-2-fluorobenzonitrile hydrochloride] were, in that order, 21.5 ± 7.6 nM and 121 nM.
The like results for `COc1ccc(-c2c(O)cc(N3CCC(N)CC3)nc2-c2ccc(C#N)c(F)c2)cc1N` [Example 44] were, in that order, 12.8 ± 4.6 nM and 28.9 nM.
The like results for `COc1ccc(-c2c(O)cc(N3CCC(NCC(C)(C)O)CC3)nc2-c2ccc(C#N)c(F)c2)cc1F` [Example 45, 2-fluoro-4-(3-(3-fluoro-4-methoxyphenyl)-4-hydroxy-6-(4-((2-hydroxy-2-methylpropyl)amino)piperidin-1-yl)pyridin-2-yl)benzonitrile hydrochloride] were, in that order, 184 nM and 160 nM.
Take `N#Cc1ccc(-c2nc(N3CCC(N)CC3)cc(O)c2-c2cc(O)c(F)c(F)c2)cc1F` [Example 46, 4-(6-(4-aminopiperidin-1-yl)-3-(3,4-difluoro-5-hydroxyphenyl)-4-hydroxypyridin-2-yl)-2-fluorobenzonitrile]: the IC50 was determined as 2 ± 1.4 nM at LSD1 (HTRF, H3K4me1 substrate) and 96.4 nM in the assay with NCI-H1417 cells.
The like results for `COc1ccc(-c2c(O)cc(N3CCC(N)CC3)nc2-c2ccc(C#N)c(F)c2)cc1C#N` [Example 47, 4-(6-(4-aminopiperidin-1-yl)-3-(3-cyano-4-methoxyphenyl)-4-hydroxypyridin-2-yl)-2-fluorobenzonitrile] were, in that order, 2.6 ± 1.3 nM and 106 nM.
Regarding `N#Cc1ccc(-c2nc(N3CCC(N)CC3)cc(O)c2-c2ccc(C#N)c(F)c2)cc1F` [Example 48, 4,4′-(6-(4-aminopiperidin-1-yl)-4-hydroxypyridine-2,3-diyl)bis(2-fluorobenzonitrile)], the IC50 turned out to be 57.8 nM on LSD1 (HTRF, H3K4me1 substrate) and 290 nM in the assay on NCI-H1417 cells.
The like results for `COCCNC1CCN(c2cc(O)c(-c3ccc(OC)c(F)c3)c(-c3ccc(C#N)c(F)c3)n2)CC1` [Example 49, 2-fluoro-4-(3-(3-fluoro-4-methoxyphenyl)-4-hydroxy-6-(4-((2-methoxyethyl)amino)piperidin-1-yl)pyridin-2-yl)benzonitrile] were, in that order, 61.4 nM and 228 nM.
The like results for `COc1ccc(-c2c(O)cc(N3CC[C@@H](N)[C@H](OC)C3)nc2-c2ccc(C#N)c(F)c2)cc1F` [Example 51, 4-(6-((3R,4R)-4-amino-3-methoxypiperidin-1-yl)-3-(3-fluoro-4-methoxyphenyl)-4-hydroxypyridin-2-yl)-2-fluorobenzonitrile] were, in that order, 64 ± 20 nM and 88.2 nM.
Consider `COc1ccc(-c2c(O)cc(N3CC4CNCC4C3)nc2-c2ccc(C#N)c(F)c2)cc1F` (stereo not shown) [Example 52, 2-fluoro-4-(3-(3-fluoro-4-methoxyphenyl)-6-(hexahydropyrrolo[3,4-c]pyrrole-2(1H)-yl)-4-hydroxypyridin-2-yl)benzonitrile hydrochloride], for which the IC50 on LSD1 was 100 nM; with NCI-H1417 cells, 167 nM.
`CNC1CCN(c2cc(O)c(-c3ccc(OC)c(F)c3)c(-c3ccc(C#N)c(F)c3)n2)CC1` [Example 55, 2-fluoro-4-(3-(3-fluoro-4-methoxyphenyl)-4-hydroxy-6-(4-(methylamino)piperidin-1-yl)pyridin-2-yl)benzonitrile]: the IC50 on LSD1 (HTRF, H3K4me1 substrate) came out at 2.3 ± 0.7 nM; in the assay with NCI-H1417 cells, 10 ± 2.9 nM.
Take `COc1ccc(-c2c(O)cc(N3CCC(N(C)C)CC3)nc2-c2ccc(C#N)c(F)c2)cc1F` [Example 56, 4-(6-(4-(dimethylamino)piperidin-1-yl)-3-(3-fluoro-4-methoxyphenyl)-4-hydroxypyridin-2-yl)-2-fluorobenzonitrile]: the IC50 at LSD1 (HTRF, H3K4me1 substrate) stood at 2.9 ± 1.2 nM; with NCI-H1417 cells it was 4.88 nM.
The like results for `N#Cc1ccc(-c2nc(N3CCC(N)CC3)cc(O)c2-c2ccc(F)c(O)c2)cc1F` [Example 58, 4-(6-(4-aminopiperidin-1-yl)-3-(4-fluoro-3-hydroxyphenyl)-4-hydroxypyridin-2-yl)-2-fluorobenzonitrile] were, in that order, 1.3 ± 0.4 nM and 7.26 nM.
The like results for `N#Cc1ccc(-c2nc(N3CCC(N)CC3)cc(O)c2-c2ccc(Cl)c(O)c2)cc1F` [Example 59, 4-(6-(4-aminopiperidin-1-yl)-3-(4-chloro-3-hydroxyphenyl)-4-hydroxypyridin-2-yl)-2-fluorobenzonitrile] were, in that order, 0.7 ± 0.3 nM and 2.35 nM.
Regarding `Cc1ccc(-c2c(O)cc(N3CCC(N)CC3)nc2-c2ccc(C#N)c(F)c2)cc1O` [Example 60], the IC50 at LSD1 (HTRF, H3K4me1 substrate) stood at 0.4 ± 0.2 nM; in the assay on NCI-H1417 cells, 0.49 nM.
The like results for `CN(CCCN)c1cc(O)c(-c2ccc(Cl)c(O)c2)c(-c2ccc(C#N)c(F)c2)n1` [Example 61, 4-(6-((3-aminopropyl)(methyl)amino)-3-(4-chloro-3-hydroxyphenyl)-4-hydroxypyridin-2-yl)-2-fluorobenzonitrile] were, in that order, 26.4 nM and 387 nM.
The like results for `COc1ccc(-c2c(O)cc(N(C)CCCN)nc2-c2ccc(C#N)c(F)c2)cc1O` [Example 62] were, in that order, 21 nM and 224 nM.
The like results for `Cc1ccc(-c2c(O)cc(N(C)CCCN)nc2-c2ccc(C#N)c(F)c2)cc1O` [Example 63, 4-(6-((3-aminopropyl)(methyl)amino)-4-hydroxy-3-(3-hydroxy-4-methylphenyl)pyridin-2-yl)-2-fluorobenzonitrile hydrochloride] were, in that order, 5.1 ± 0.4 nM and 192 nM.
Consider `Cc1ccc(-c2c(-c3ccc(C#N)c(F)c3)nc(N3CCC(N)CC3)c(C)c2O)cc1O` [Example 65, 4-(6-(4-aminopiperidin-1-yl)-4-hydroxy-3-(3-hydroxy-4-methylphenyl)-5-methylpyridin-2-yl)-2-fluorobenzonitrile hydrochloride], for which the IC50 is 0.7 ± 0.4 nM at LSD1 (HTRF, H3K4me1 substrate) and 0.95 nM with NCI-H1417 cells.
The like results for `Cc1ccc(-c2cnc(N3CCC(N)CC3)c(C#N)c2-c2ccc(C#N)c(F)c2)cc1O` [Example 67, 2-(4-aminopiperidin-1-yl)-4-(4-cyano-3-fluorophenyl)-5-(3-hydroxy-4-methylphenyl) nicotinonitrile hydrochloride] were, in that order, 0.2 ± 0.1 nM and 0.2 nM.
The like results for `COc1ccc(-c2cnc(N3CCC(N)CC3)c(C#N)c2-c2ccc(C#N)c(F)c2)cc1F` [Example 68, 2-(4-aminopiperidin-1-yl)-4-(4-cyano-3-fluorophenyl)-5-(3-fluoro-4-methoxyphenyl) nicotinonitrile hydrochloride] were, in that order, 3.4 ± 1.3 nM and 6.92 nM.
The like results for `COc1ccc(-c2cnc(N3CCC(N)CC3)c(C#N)c2-c2ccc(C#N)c(F)c2)cc1` [Example 69, 2-(4-aminopiperidin-1-yl)-4-(4-cyano-3-fluorophenyl)-5-(4-methoxyphenyl) nicotinonitrile hydrochloride] were, in that order, 3.9 ± 2.7 nM and 8.41 nM.
Consider `Cc1ccc(-c2cnc(N3CCC(N)CC3)c(C#N)c2-c2ccc(C#N)c(F)c2)cc1F` [Example 72, 2-(4-aminopiperidin-1-yl)-4-(4-cyano-3-fluorophenyl)-5-(3-fluoro-4-methylphenyl) nicotinitrile], for which the IC50 at LSD1 (HTRF, H3K4me1 substrate) was determined as 6.6 ± 1 nM; in the assay on NCI-H1417 cells, 12.2 nM.
